One series has as its system Staphylococcus aureus. The series is described as follows: Test of the antibacterial activity (agar plate, antibiotic test sheets, inhibition halo). It is filed as cell-based. The conditions noted are these: 16 hours at 37° C. As to the method:
For the test of the antibacterial action, agar plates containing 2 ml of Staphylococcus aureus sowing in 200 ml of agar solution were firstly prepared. Makandechamone was applied in a 1 mg/ml solution to antibiotic test sheets (Schleicher and Schüll) having a diameter of 6 mm and placed on the agar plate. The inoculated Staphylococcus plates were incubated for 16 hours at 37° C. Inhibition halos having the following diameters (mm) were then observed: […]

Series [1] can be described thus: Solubility (physicochemical properties). From the text:
(§1) Stable in neutral and acidic medium.

Series [2] is described as follows: Stability (physicochemical properties). The conditions noted are these: neutral and acidic medium.
Text: as §1

For series [3], the system named is certain bee-pathogenic bacteria. As to conditions: cited from earlier work.
The next series has as its system HIV. The conditions noted are these: cited from earlier work.

Turning to `C=C1CC(C)(C)CCC1CC12CC(CC=C(C)C)C(C)(C)C(C(=O)c3ccccc3)(C1=O)C(O)=C(CC=C(C)C)C2=O` (stereo not drawn) [makandechamone], the Inhibition halo size stood at 7 mm with Staphylococcus aureus (10 μl of 1 mg/ml solution on 6 mm test sheet), 12 mm in the series on Staphylococcus aureus (20 μl of 1 mg/ml solution on 6 mm test sheet) and 14 mm in the series on Staphylococcus aureus (40 μl of 1 mg/ml solution on 6 mm test sheet). Moreover, the “Solubility in medium polar and polar organic solvents” value in series [1] (medium polar and polar organic solvents) is given as “soluble”. Also, the Solubility in water entry in series [1] (water) was “not very soluble”. Further, the Stability result in series [2] is “Stable”.

As for chamone I, the “Activity against certain bee-pathogenic bacteria” value in series [3] is recorded as “active”.

Turning to guttiferone F, the HIV-inhibitory action entry in the series with HIV is reported as “HIV-inhibitory action”.

As for nemorosome II, the “Activity against certain bee-pathogenic bacteria” value in series [3] is on record as “active”.

These data come from patent US20040082662A1, “Polyisoprenylbenzophenone derivatives, processes for their preparation and use thereof” (Aventis Pharma Deutschland Gmbh, priority 2002, published 2004).
